Source: the supplement of paper PMC4862054

Columns and labels:
Conditions in all cases: 72 h
MDA-MB-436 [1] = system: MDA-MB-436
Method: (§1)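 Drug sensitivity and resistance testing (DSRT) of breast cancer cell lines in 384-well plates, 5 concentrations in 10-fold dilutions over a compound-specific 10,000-fold range. After 72 h, cytotoxicity was read by CellTox Green fluorescence and viability by CellTiter-Glo luminescence (multiplexed), normalised to DMSO and benzethonium chloride controls. EC50 is the inflection point of the fitted dose-response curve (bottom asymptote free, so it can be relative for partial curves) and is censored at the highest tested concentration. Rows with DSS 0 (no meaningful response) were excluded.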

BT-549 [2] = system: BT-549
Method: as §1

HCC1143 [3] = system: HCC1143
Method in brief: (§2)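 For viability and cell death testing, 384-well plates carried compound at 5 concentrations in 10-fold steps over a compound-specific 10,000-fold range, and breast cancer cell lines were seeded in 20 µl suspension. After 72 h incubation, cell death was read by CellTox Green fluorescence (485/520 nm) before viability was read by CellTiter-Glo luminescence. EC50 was fitted from the dose-response curves and censored at the top concentration. Normalisation on each plate was to 0.1 % DMSO and a positive kill control.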

CAL-85-1 [4] = system: CAL-85-1
Method in brief: as §2

MFM-223 [5] = system: MFM-223
Method in brief: as §2

HCC1937 [6] = system: HCC1937
Method in brief: as §2

CAL-120 [7] = system: CAL-120
Method in brief: as §2

HDQ-P1 [8] = system: HDQ-P1
Method in brief: as §2

MCF-10A [9] = system: MCF-10A
Method in brief: as §2

MDA-MB-231 [10] = system: MDA-MB-231
Method in brief: as §2

MDA-MB-436 [11] = system: MDA-MB-436; remark: listed apart in the source
Method in brief: as §2

BT-549 [12] = system: BT-549; remark: listed apart in the source
Method in brief: as §2

CAL-148 [13] = system: CAL-148
Method in brief: as §2

Hs578T [14] = system: Hs578T
Method in brief: as §2

MDA-MB-453 [15] = system: MDA-MB-453
Method in brief: as §2

HCC1599 [16] = system: HCC1599
Method in brief: as §2

SK-BR-3 [17] = system: SK-BR-3
Method in brief: as §2

DU-4475 [18] = system: DU-4475
Method in brief: as §2

HCC1143 [19] = system: HCC1143; remark: listed apart in the source
Method: as §1

CAL-85-1 [20] = system: CAL-85-1; remark: listed apart in the source
Method: as §1

MFM-223 [21] = system: MFM-223; remark: listed apart in the source
Method: as §1

CAL-120 [22] = system: CAL-120; remark: listed apart in the source
Method: as §1

CAL-51 [23] = system: CAL-51
Method: as §1

HDQ-P1 [24] = system: HDQ-P1; remark: listed apart in the source
Method: as §1

MCF-10A [25] = system: MCF-10A; remark: listed apart in the source
Method: as §1

MDA-MB-231 [26] = system: MDA-MB-231; remark: listed apart in the source
Method: as §1

CAL-148 [27] = system: CAL-148; remark: listed apart in the source
Method: as §1

Hs578T [28] = system: Hs578T; remark: listed apart in the source
Method: as §1

MDA-MB-453 [29] = system: MDA-MB-453; remark: listed apart in the source
Method: as §1

BT-474 [30] = system: BT-474
Method: as §1

DU-4475 [31] = system: DU-4475; remark: listed apart in the source
Method: as §1

CAL-85-1 [32] = system: CAL-85-1; remark: listed apart in the source
Method in brief: (§3)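 Breast cancer cell lines in 20 µl suspension were seeded onto 384-well plates that already held compound dissolved in 5 µl medium and were incubated for 72 h. Viability was measured by adding 2.5 µl CellTiter-Blue for 2 h at 37 °C and reading fluorescence at 560/590 nm. Each plate was normalised to vehicle and a positive kill control and checked by Z'-factor. EC50 was taken from a fitted percent-inhibition dose-response curve, censored at the highest concentration, and rows with a drug sensitivity score of zero were removed.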

CAL-51 [33] = system: CAL-51; remark: listed apart in the source
Method in brief: as §3

HDQ-P1 [34] = system: HDQ-P1; remark: listed apart in the source
Method in brief: as §3

DU-4475 [35] = system: DU-4475; remark: listed apart in the source
Method in brief: as §3

HCC1143 [36] = system: HCC1143; remark: listed apart in the source
Method in brief: as §3

MFM-223 [37] = system: MFM-223; remark: listed apart in the source
Method in brief: as §3

MDA-MB-468 [38] = system: MDA-MB-468
Method in brief: as §3

MDA-MB-436 [39] = system: MDA-MB-436; remark: listed apart in the source
Method in brief: as §3

BT-549 [40] = system: BT-549; remark: listed apart in the source
Method in brief: as §3

Hs578T [41] = system: Hs578T; remark: listed apart in the source
Method in brief: as §3

HCC1599 [42] = system: HCC1599; remark: listed apart in the source
Method in brief: as §3

BT-474 [43] = system: BT-474; remark: listed apart in the source
Method in brief: as §3

SK-BR-3 [44] = system: SK-BR-3; remark: listed apart in the source
Method in brief: as §3

HCC1937 [45] = system: HCC1937; remark: listed apart in the source
Method: as §1

MDA-MB-468 [46] = system: MDA-MB-468; remark: listed apart in the source
Method: as §1

O=P1(NCCCl)OCCCN1CCCl (configuration not stated) [Ifosfamide]
EC50, CellTox Green (MDA-MB-436 [1]): > 10000 nM
EC50, CellTox Green (BT-549 [2]): > 10000 nM

CN[C@@H]1C[C@H]2O[C@@](C)([C@@H]1OC)n1c3ccccc3c3c4c(c5c6ccccc6n2c5c31)C(=O)N[C@H]4O [UCN-01]
EC50, CellTiter-Glo (HCC1143 [3]): 145 nM
EC50, CellTiter-Glo (CAL-85-1 [4]): 81.3 nM
EC50, CellTiter-Glo (MFM-223 [5]): 137 nM
EC50, CellTiter-Glo (HCC1937 [6]): 193 nM
EC50, CellTiter-Glo (CAL-120 [7]): 43.6 nM
EC50, CellTiter-Glo (HDQ-P1 [8]): 217 nM
EC50, CellTiter-Glo (MCF-10A [9]): 45.7 nM
EC50, CellTiter-Glo (MDA-MB-231 [10]): 34.4 nM
EC50, CellTiter-Glo (MDA-MB-436 [11]): 88.1 nM
EC50, CellTiter-Glo (BT-549 [12]): 118 nM
EC50, CellTiter-Glo (CAL-148 [13]): 1490 nM
EC50, CellTiter-Glo (Hs578T [14]): 36.8 nM
EC50, CellTiter-Glo (MDA-MB-453 [15]): 277 nM
EC50, CellTiter-Glo (HCC1599 [16]): 28 nM
EC50, CellTiter-Glo (SK-BR-3 [17]): 57.6 nM
EC50, CellTiter-Glo (DU-4475 [18]): 184 nM
EC50, CellTox Green (HCC1143 [19]): 114 nM
EC50, CellTox Green (CAL-85-1 [20]): 168 nM
EC50, CellTox Green (MFM-223 [21]): 46.3 nM
EC50, CellTox Green (CAL-120 [22]): 1580 nM
EC50, CellTox Green (CAL-51 [23]): 63.9 nM
EC50, CellTox Green (HDQ-P1 [24]): 34.3 nM
EC50, CellTox Green (MCF-10A [25]): 130 nM
EC50, CellTox Green (MDA-MB-231 [26]): 88.8 nM
EC50, CellTox Green (BT-549 [2]): 220 nM
EC50, CellTox Green (CAL-148 [27]): 6850 nM
EC50, CellTox Green (Hs578T [28]): 266 nM
EC50, CellTox Green (MDA-MB-453 [29]): 6000 nM
EC50, CellTox Green (BT-474 [30]): 2470 nM
EC50, CellTox Green (DU-4475 [31]): 128 nM
EC50, CellTiter-Blue viability (CAL-85-1 [32]): 175 nM
EC50, CellTiter-Blue viability (CAL-51 [33]): 140 nM
EC50, CellTiter-Blue viability (HDQ-P1 [34]): 59.7 nM
EC50, CellTiter-Blue viability (DU-4475 [35]): 212 nM
EC50, CellTiter-Blue viability (HCC1143 [36]): 48.5 nM
EC50, CellTiter-Blue viability (MFM-223 [37]): 355 nM
EC50, CellTiter-Blue viability (MDA-MB-468 [38]): 105 nM
EC50, CellTiter-Blue viability (MDA-MB-436 [39]): 695 nM
EC50, CellTiter-Blue viability (BT-549 [40]): 111 nM
EC50, CellTiter-Blue viability (Hs578T [41]): 30.6 nM
EC50, CellTiter-Blue viability (HCC1599 [42]): 98.1 nM
EC50, CellTiter-Blue viability (BT-474 [43]): 846 nM
EC50, CellTiter-Blue viability (SK-BR-3 [44]): 80.2 nM

CO[C@H]1/C=C\C=C(/C)C(=O)NC2=CC(=O)C(NCCN(C)C)=C(C[C@@H](C)C[C@H](OC)[C@H](O)[C@@H](C)/C=C(\C)[C@@H]1OC(N)=O)C2=O [Alvespimycin]
EC50, CellTiter-Glo (HCC1143 [3]): 34.8 nM
EC50, CellTiter-Glo (CAL-85-1 [4]): 41.8 nM
EC50, CellTiter-Glo (MFM-223 [5]): 17.6 nM
EC50, CellTiter-Glo (HCC1937 [6]): 44.1 nM
EC50, CellTiter-Glo (CAL-120 [7]): 46.2 nM
EC50, CellTiter-Glo (HDQ-P1 [8]): 30.2 nM
EC50, CellTiter-Glo (MCF-10A [9]): 40.8 nM
EC50, CellTiter-Glo (MDA-MB-231 [10]): 46.2 nM
EC50, CellTiter-Glo (MDA-MB-436 [11]): 11.3 nM
EC50, CellTiter-Glo (BT-549 [12]): 8.13 nM
EC50, CellTiter-Glo (CAL-148 [13]): 38.7 nM
EC50, CellTiter-Glo (Hs578T [14]): 45.7 nM
EC50, CellTiter-Glo (MDA-MB-453 [15]): 19.8 nM
EC50, CellTiter-Glo (HCC1599 [16]): 91.5 nM
EC50, CellTiter-Glo (SK-BR-3 [17]): 11 nM
EC50, CellTiter-Glo (DU-4475 [18]): 34 nM
EC50, CellTox Green (HCC1143 [19]): 138 nM
EC50, CellTox Green (CAL-85-1 [20]): 187 nM
EC50, CellTox Green (HCC1937 [45]): 781 nM
EC50, CellTox Green (MDA-MB-468 [46]): 682 nM
EC50, CellTox Green (CAL-120 [22]): > 1000 nM
EC50, CellTox Green (CAL-51 [23]): 35.8 nM
EC50, CellTox Green (HDQ-P1 [24]): 12.2 nM
EC50, CellTox Green (MCF-10A [25]): 37.9 nM
EC50, CellTox Green (MDA-MB-231 [26]): 171 nM
EC50, CellTox Green (CAL-148 [27]): 45 nM
EC50, CellTox Green (Hs578T [28]): 242 nM
EC50, CellTox Green (BT-474 [30]): 77.3 nM
EC50, CellTox Green (DU-4475 [31]): 26.6 nM
EC50, CellTiter-Blue viability (CAL-85-1 [32]): 35.1 nM
EC50, CellTiter-Blue viability (CAL-51 [33]): 53.3 nM
EC50, CellTiter-Blue viability (HDQ-P1 [34]): 22.6 nM
EC50, CellTiter-Blue viability (DU-4475 [35]): 15.3 nM
EC50, CellTiter-Blue viability (HCC1143 [36]): 26.2 nM
EC50, CellTiter-Blue viability (MFM-223 [37]): 8.78 nM
EC50, CellTiter-Blue viability (MDA-MB-468 [38]): 60.5 nM
EC50, CellTiter-Blue viability (MDA-MB-436 [39]): 19.9 nM
EC50, CellTiter-Blue viability (BT-549 [40]): 6.08 nM
EC50, CellTiter-Blue viability (Hs578T [41]): 5.38 nM
EC50, CellTiter-Blue viability (HCC1599 [42]): 17.4 nM
EC50, CellTiter-Blue viability (BT-474 [43]): 22.9 nM
EC50, CellTiter-Blue viability (SK-BR-3 [44]): 8.15 nM
